One molecule from patent publication US5173502A, “Substituted trifluoropropan-1-yl-imidazole alpha 2-receptor anagonists” (Adir et Compagnie, priority 1990, dated 1992) can be followed below.

Molecules are shown by their SMILES.

One assay relates to α2-adrenergic receptors. Kind of assay: In vivo α2-antagonism test: reestablishment of the righting reflex lost through xylazine in rats. Set-up: species or system rat. Particulars: xylazine-induced loss of righting reflex. As to the method:
(§1) In vivo α2 -antagonism test
(§2) The α2 -antagonist properties of the compounds of the invention were determined according to a method described by F. Colpaert et al., (DRUG Development Research 7, 125-140, 1986) by measuring the effects produced by those compounds on the loss of the correcting reflex and exophthalmia induced in rats by xylazine, a known agonist of α2-adrenergic receptors in the central nervous system.
(§3) The reestablishment of the righting reflex measures the α2 -antagonist potential of the compounds, whilst the return of the eye to a normal position measures the α1 -antagonist potential.

Another assay relates to α1. Kind of assay: In vivo test: return of the eye to a normal position (xylazine-induced exophthalmia) in rats, α1-antagonist potential. Set-up: species or system rat. The method, then: as §1, §2, §3

As to `Cl.FC(F)(F)C(Cc1c[nH]cn1)c1ccccc1` (centres unmarked) [Example 2, 4-(2-Phenyl-3,3,3-trifluoropropan-1-yl)-imidazole hydrochloride], in the assay on α2-adrenergic receptors, the “ED50 (α2)” value stood at 5 mg/kg. Also, the “ED50 (α1)” value in the assay with α1 was “higher than 10 mg/kg”.
